US12428415B2, “Matriptase 2 inhibitors and uses thereof” (Disc Medicine, Inc., priority 2018, dated 2025)
Where two headings read alike, the source gives them in different places.

Target: T1, Human Recombinant Matriptase 2 (Homo sapiens, UniProt Q8IU80)
T1 construct: purchased Enzo Life Sciences (an in-house preparation was also used) ALX-201-752-1
T1 sequence (Q8IU80 1-811): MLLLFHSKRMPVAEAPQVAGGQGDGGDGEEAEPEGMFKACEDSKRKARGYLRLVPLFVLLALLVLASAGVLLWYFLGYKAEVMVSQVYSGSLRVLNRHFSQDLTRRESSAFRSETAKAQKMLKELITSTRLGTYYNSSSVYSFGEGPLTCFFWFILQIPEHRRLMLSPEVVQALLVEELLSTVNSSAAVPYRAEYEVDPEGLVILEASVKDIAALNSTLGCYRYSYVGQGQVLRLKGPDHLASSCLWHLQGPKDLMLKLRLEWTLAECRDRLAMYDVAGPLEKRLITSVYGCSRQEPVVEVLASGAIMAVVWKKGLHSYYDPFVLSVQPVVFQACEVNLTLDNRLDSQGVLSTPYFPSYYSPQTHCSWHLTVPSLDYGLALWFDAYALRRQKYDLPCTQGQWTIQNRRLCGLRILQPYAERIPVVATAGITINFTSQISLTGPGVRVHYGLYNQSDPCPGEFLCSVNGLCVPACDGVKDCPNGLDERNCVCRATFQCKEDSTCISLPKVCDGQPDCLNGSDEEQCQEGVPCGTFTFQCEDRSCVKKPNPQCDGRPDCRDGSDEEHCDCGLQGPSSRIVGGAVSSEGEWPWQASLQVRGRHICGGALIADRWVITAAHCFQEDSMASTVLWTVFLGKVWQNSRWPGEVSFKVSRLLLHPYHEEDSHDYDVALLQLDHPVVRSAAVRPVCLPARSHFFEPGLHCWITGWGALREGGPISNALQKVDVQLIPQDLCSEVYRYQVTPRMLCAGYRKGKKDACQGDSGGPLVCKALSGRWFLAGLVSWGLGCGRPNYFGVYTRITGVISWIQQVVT
Assay: Matriptase 2 fluorescence based inhibition assay, Method B (50 mM TRIS pH 7.5, 150 mM NaCl, 0.01% gelatin)
Format: biochemical
Conditions: for inhibition at 1 µM: read-out: Mar-2 % inhibition at 1 uM
Procedure, shortened: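 Commercial (7 nM) or in-house (15 nM) enzyme preincubated 30 min with compound at 25° C, then 100 μM Boc-Gln-Ala-Arg-AMC added; fluorescence (Ex 360/Em 480 nm) read at 60 min. 1% DMSO final. IC50 from variable-slope sigmoidal fit of % inhibition.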

[1] = compound at 1 uM, Assay Used: B
[2] = 1 uM compound, Assay Used = B (Method B)

Row | Compound | inhibition at 1 µM [2] [%] | also measured
1 | N=C(N)c1ccc2cc(C(=O)N[C@H]3CC[C@H](N)CC3)n(Cc3cccc4sc(CO)cc34)c2c1 [Compound I-813, N-((1r,4r)-4-aminocyclohexyl)-6-carbamimidoyl-1-((2-(hydroxymethyl)benzo[b]thiophen-4-yl)methyl)-1H-indole-2-carboxamide] |  | inhibition at 1 µM [1]: 50 to 75%
2 | CC1(O)CCC(OC(=O)c2cc3ccc(C(=N)N)cc3n2Cc2cc(Oc3ccccc3)cc3ccccc23)CC1 (centres unmarked) [Compound I-617] | 0 to 25 | 
3 | COC(=O)c1cc2ccc(C(=N)NC(=O)Oc3ccccc3)cc2n1Cc1cccc2ccccc12 [Compound I-738] |  | inhibition at 1 µM: 0 to 25%
4 | N=C(N)c1ccc2cc(C(=O)NC3CCCC(N)C3)n(Cc3cccc4ccccc34)c2c1 (centres unmarked) [Compound I-467] |  | inhibition at 1 µM (1 uM compound, Assay Used = B): 75 to 100%
5 | N=C(N)c1ccc2cc(C(=O)N[C@H]3CC[C@H](N)CC3)n(Cc3cc(Sc4ccccc4)cc4ccccc34)c2c1 [Compound I-725] | 75 to 100 | 
6 | N=C(N)c1ccc2cc(C(=O)O)n(Cc3ccc(Oc4ccccc4)c4ccccc34)c2n1 [Compound I-679] | 25 to 50 | 
7 | CN(C)C(=O)c1cc2ccc(C(=N)N)cc2n1Cc1cccc2ccccc12 [Compound I-482] |  | Mar-2 % inhibition at 1 uM (1 uM compound, Assay Used = B): B (B represents 25%≤I≤50%)
8 | CNC(=O)c1cc2ccc(C(=N)N)cc2n1Cc1cccc2ccccc12 [Compound I-483] |  | Mar-2 % inhibition at 1 uM (1 uM compound, Assay Used = B): C (C represents 50%≤I≤75%)
9 | CN1CCC(NC(=O)c2cc3ccc(C(=N)NC(=O)Oc4ccc(F)cc4)cc3n2Cc2cc(Oc3ncccn3)cc3ccccc23)CC1 [Compound I-545] |  | inhibition at 1 µM: 25 to 50%
10 | CCn1c(C(=O)O)c(Cc2cccc3ccccc23)c2cc(C(=N)N)ccc21 [Compound I-685] | 50 to 75 | 
11 | NC(=O)c1ccc2cc(-c3nnc([C@H]4CC[C@H](N)CC4)s3)n(Cc3cccc4ccccc34)c2c1 [Compound I-527, 2-(5-((1r,4r)-4-aminocyclohexyl)-1,3,4-thiadiazol-2-yl)-1-(naphthalen-1-ylmethyl)-1H-indole-6-carboxamide] |  | inhibition at 1 µM (1 uM compound, Assay Used = B): 0 to 25%
12 | N=C(N)c1ccc2cc(C(=O)N[C@H]3CC[C@H](Nc4ncccn4)CC3)n(Cc3cccc4ccccc34)c2c1 [Compound I-741] | 50 to 75 | 
13 | Cc1cc(C)nc(Oc2cc(Cn3c(C(=O)O)cc4ccc(C(=N)N)cc43)c3ccccc3c2)n1 [Compound I-570] |  | inhibition at 1 µM (1 uM compound, Assay Used = B): 25 to 50%
14 | N=C(N)c1ccc2cc(C(=O)O)n(Cc3cccc4cc(O)ccc34)c2c1 [Compound I-821] |  | inhibition at 1 µM [1]: 75 to 100%
15 | N=C(N)c1ccc2c(CO)c(C(=O)N[C@H]3CC[C@H](N)CC3)n(Cc3cccc4ccccc34)c2c1 [Compound I-516, N-((1r,4r)-4-aminocyclohexyl)-6-carbamimidoyl-3-(hydroxymethyl)-1-(naphthalen-1-ylmethyl)-1H-indole-2-carboxamide] |  | inhibition at 1 µM (1 uM compound, Assay Used = B): 0 to 25%
16 | N=C(N)c1ccc2cc(C(=O)N[C@H]3CC[C@@H](N)CC3)n(-c3ccc4ccccc4c3)c2c1 [Compound I-491] |  | inhibition at 1 µM (1 uM compound, Assay Used = B): 50 to 75%
17 | NCc1ccc2cc(C(=O)NCC3CCNCC3)n(-c3ccc4ccccc4c3)c2c1 [Compound I-537] |  | inhibition at 1 µM (1 uM compound, Assay Used = B): 0 to 25%
18 | N=C(N)c1ccc2cc(C(=O)O)n(Cc3cc(Oc4ncccn4)cc4ccccc34)c2c1 [Compound I-693] | 75 to 100 | 
19 | COc1ccc2ccccc2c1Cn1c(C(=O)N[C@H]2CC[C@H](N)CC2)cc2ccc(C(=N)N)cc21 [Compound I-799] |  | inhibition at 1 µM [1]: 0 to 25%
20 | N=C(N)c1ccc2cc(C(=O)OCCN)n(Cc3cccc4ccccc34)c2c1 [Compound I-745] | 0 to 25 | 
21 | CC(C)COC(=O)NC(=N)c1ccc2cc(C(=O)NC3CCN(C)CC3)n(Cc3cccc4ccccc34)c2c1 [Compound I-783] | 0 to 25 | 
22 | N=C(N)c1ccc2cc(C(=O)N[C@H]3CC[C@H](N)CC3)n(Cc3ccc(C(N)=O)cc3)c2c1 [Compound I-500] |  | inhibition at 1 µM (1 uM compound, Assay Used = B): 25 to 50%
23 | N=C(N)c1ccc2cc(C(=O)O)n(Cc3cc(Nc4ccccc4)cc4ccccc34)c2c1 [Compound I-656] | 50 to 75 | 
24 | COC(=O)NCCOC(=O)c1cc2ccc(C(=N)NC(=O)Oc3ccccc3)cc2n1Cc1cc(Oc2ncccn2)cc2ccccc12 [Compound I-554] |  | inhibition at 1 µM: 0 to 25%
25 | N=C(N)c1ccc2cc(C(=O)Nc3ccc(NC(=O)c4ccccn4)cc3)n(Cc3cccc4ccccc34)c2c1 [Compound I-430] |  | inhibition at 1 µM (1 uM compound, Assay Used = B): 50 to 75%

Row | Compound | inhibition at 1 µM [2] [%] | also measured
26 | N=C(N)c1ccc2cc(C(=O)N[C@H]3CC[C@H](N)CC3)n(Cc3cc(C(=O)O)cc4ccccc34)c2c1 [Compound I-806] |  | inhibition at 1 µM [1]: 50 to 75%
27 | N=C(N)c1ccc2cc(-c3ncco3)n(Cc3cccc4ccccc34)c2c1 [Compound I-748, 1-(naphthalen-1-ylmethyl)-2-(oxazol-2-yl)-1H-indole-6-carboximidamide] | 75 to 100 | 
28 | CN1CC[C@H](COC(=O)c2cc3ccc(C(=N)N)cc3n2Cc2cccc3ccccc23)c2ccccc21 [Compound I-779] | 25 to 50 | 
29 | N=C(N)c1ccc2cc(CO)n(Cc3cccc4ccccc34)c2c1 [Compound I-487, 2-(hydroxymethyl)-1-(naphthalen-1-ylmethyl)-1H-indole-6-carboximidamide] |  | inhibition at 1 µM (1 uM compound, Assay Used = B): 50 to 75%
30 | CC(C)(C)OC(=O)N[C@H]1CC[C@H](NC(=O)c2cc3ccc(C(=N)N)cc3n2Cc2cccc3ccccc23)CC1 [Compound I-403] |  | Mar-2 % inhibition at 1 uM (1 uM compound, Assay Used = B): A (A represents 0%≤I≤25%)
31 | N=C(N)c1ccc2cc(C(=O)O)n(Cc3cc(Oc4ccccn4)cc4ccccc34)c2c1 [Compound I-628] | 75 to 100 | 
32 | N/C(=N/O)c1ccc2cc(C(=O)O)n(Cc3cccc4ccccc34)c2c1 [Compound I-759] | 0 to 25 | 
33 | Cc1cnc(-c2cc3ccc(C(=N)N)cc3n2Cc2cccc3ccccc23)[nH]1 [Compound I-714] | 75 to 100 | 
34 | N=C(N)c1ccc2cc(C(=O)O)n(Cc3ccc4ccccc4c3)c2c1 [Compound I-459] |  | inhibition at 1 µM (1 uM compound, Assay Used = B): 25 to 50%
35 | N=C(N)c1ccc2cc(C(=O)O)n(-c3cc(CO)c4ccccc4c3)c2c1 [Compound I-677] | 50 to 75 | 
36 | CS(=O)(=O)N[C@H]1CC[C@@H](NC(=O)c2cc3ccc(C(=N)N)cc3n2Cc2cccc3ccccc23)CC1 [Compound I-728] | 75 to 100 | 
37 | N=C(N)c1ccc2c(c1)cc(C(=O)O)n2Cc1cccc2ccccc12 [Compound I-651] | 0 to 25 | 
38 | N=C(N)c1ccc2cc(C(=O)N[C@H]3CC[C@H](N)CC3)n(Cc3c(Cl)c(Sc4ccccc4)cc4ccccc34)c2c1 [Compound I-652] | 50 to 75 | 
39 | CN1CC[C@@H](NC(=O)c2cc3ccc(C(=N)N)cc3n2Cc2cccc3ccccc23)C1 [Compound I-450] |  | inhibition at 1 µM (1 uM compound, Assay Used = B): 75 to 100%
40 | NC(=NO)c1ccc2cc(C(=O)O)n(Cc3cc(Oc4ccccc4)cc4ccccc34)c2c1 [Compound I-665] | 0 to 25 | 
41 | N=C(N)c1ccc2cc(C(=O)O)n(Cc3cc(Oc4ccc(N)cc4F)cc4ccccc34)c2c1 [Compound I-639] | 50 to 75 | 
42 | CCOC(=O)c1cc2ccc(C(=N)NC(=O)OCC(C)C)cc2n1Cc1cccc2ccccc12 [Compound I-719, Ethyl 6-(N-(isobutoxycarbonyl)carbamimidoyl)-1-(naphthalen-1-ylmethyl)-1H-indole-2-carboxylate] | 0 to 25 | 
43 | N=C(N)c1ccc2cc(C(=O)OCCNC(N)=O)n(Cc3cccc4ccccc34)c2c1 [Compound I-597] | 75 to 100 | 
44 | CC(C)(C)OC(=O)NC(=N)c1ccc2cc(C(=O)N[C@H]3CCCc4ccccc43)n(Cc3cccc4ccccc34)c2c1 [Compound I-767] | 0 to 25 | 
45 | N=C(N)c1ccc2cc(C(=O)O)n(-c3ccc4ccccc4c3)c2c1 [Compound I-654] | 0 to 25 | 
46 | N=C(N)c1ccc2cc(C(=O)O)n(Cc3cc(Oc4ncc(F)cn4)cc4ccccc34)c2c1 [Compound I-571] |  | inhibition at 1 µM (1 uM compound, Assay Used = B): 50 to 75%
47 | N=C(N)c1ccc2cc(C(=O)Nc3cccc4c3OCCO4)n(Cc3cccc4ccccc34)c2c1 [Compound I-760] | 0 to 25 | 
48 | N/C(=N\O)c1ccc2cc(C(=O)NC3CCNCC3)n(Cc3cccc4ccccc34)c2c1 [Compound I-809] |  | inhibition at 1 µM [1]: 25 to 50%
49 | CC(C)COC(=O)NC(=N)c1ccc2cc(C(=O)O)n(Cc3cc(Oc4ncccn4)cc4ccccc34)c2c1 [Compound I-595] |  | inhibition at 1 µM (1 uM compound, Assay Used = B): 25 to 50%
50 | COC(=O)NC(=N)c1ccc2cc(C(=O)O)n(Cc3cc(Oc4ncccn4)cc4ccccc34)c2c1 [Compound I-561] |  | inhibition at 1 µM (1 uM compound, Assay Used = B): 25 to 50%
